# Laboratory results from PMC9863002, “Amino Derivatives of Diaryl Pyrimidines and Azolopyrimidines as Protective Agents against LPS-Induced Acute Lung Injury” (Molecules, 2023).
# Legend:
# [1] = system: phagocytic activity of C57bl/6j peritoneal macrophages; experiment: Phagocytosis assay (yeast); format: cell-based, C57bl/6j mice; conditions: 72 h of incubation
# Description: Peritoneal macrophages of C57bl/6j mice were cultured in a 24-well plate at a volume of 500 µL/well (1 × 10^5 cells/mL) for 24 h. Test compounds or DMSO were added to wells in triplicate followed by 50 µL of 1% yeast suspension, and the plates were incubated for 40 min. After 24 or 72 h, the medium was removed. The cells were fixed with May–Grunwald methanol dye and stained with Azur–Eosin in Romanovsky’s modification for 45 min at room temperature, washed, air-dried, and analyzed using a microscope Mikmed-6 (Russia), equipped with a digital camera. The study was performed in three technical replicates and two series; 100 macrophages were processed in each sample to count the captured yeast cells. Macrophage spreading was assessed as a number of pseudopodia.
# MTT cytotoxicity study = format: cell-based, C57bl/6j mice; conditions: male, C57bl/6j, mouse; peritoneal macrophages, 24 h incubation
# Description: (§1) Peritoneal macrophages (PM) were isolated from the peritoneal exudate of 30 male C57bl/6j mice. To accumulate PM, 1 mL of 3% peptone solution was injected intraperitoneally. After 3 days, the mice were euthanized by cervical dislocation. Cells of peritoneal exudate were obtained by aseptic washing of the abdominal cavity with 5 mL of sterile Hanks’s solution (+4–6 °C) without calcium and magnesium ions. The total number and viability of cells were assessed in a Goryaev counting chamber (Russia) with a 0.4% trypan blue staining (Sigma-Aldrich, St. Louis, MO, USA). The cell concentration was adjusted to 1.0 × 10^6 cells/mL in DMEM (Gibco, Waltham, MA, USA) supplemented with 2 mM L-glutamine (Gibco), 10% heat-inactivated fetal bovine serum (BioClot, Bavaria, Germany), 100 U/mL penicillin, and […] streptomycin (Gibco) and plated 200 µL/well in 96-well transparent plates (SPL Life Sciences Co., Ltd., Pocheon-si, Republic of Korea). After 2 h at 37 °C in a humidified atmosphere with 5% CO2, the wells were washed to remove non-adherent cells. After 24 h of incubation, 20 µL of the supernatants were substituted with 20 µL of solutions of test compounds, followed by E. coli O127:B8 LPS (100 ng/mL final concentration) after 30 min. The experiments were run in 3 independent replicates.
# (§2) The activity of lactate dehydrogenase (LDH) in a cell culture medium served as a marker of membrane permeability and cell death. Aliquots of supernatants were taken after 24 h of inoculation with test compounds, mixed with 250 µL of […] NADH solution in 54 mM phosphate-buffered saline (pH 7.5). Then, 25 µL of a 6.48 mM pyruvate solution was added to the mixture. The optical density was followed at a wavelength of 340 nm for 20 min. The MTT test was performed 24 h after incubations of cells with tested compounds. Briefly, 20 µL of MTT solution was added to each well and incubated at 37 °C in a humidified atmosphere containing 5% CO2 for 4 h. The culture medium was removed, the cells were lysed, and formazan crystals were dissolved in 150 µL DMSO. The plates were shaken at room temperature for 10 min, and the optical density was measured in a microplate reader Infinite M200 PRO (Tecan, Grödig, Austria) at a wavelength of 565 nm.
# peritoneal macrophages = experiment: MTT cytotoxicity study; format: cell-based, C57bl/6j mice
# Description: as §1, §2
# [2] = system: NO synthesis in LPS-stimulated primary murine peritoneal macrophages; experiment: Inhibition of NO synthesis in LPS-stimulated macrophages (Griess); format: cell-based, C57bl/6j mice; conditions: Mus musculus, Peritoneal macrophage; LPS-stimulated (100 ng/mL E. coli LPS) peritoneal macrophages, supernatants after 22 h; n.a. = not active
# Description: as §1
# The accumulation of the nitrite anion (a stable end product of NO decomposition) in supernatants was determined using a standard Griess reagent. Briefly, 50 µL of supernatants were collected 22 h after incubation of PM, and the test and control compounds were mixed with 50 µL of 1% sulfonamide in 2.5% H3PO4 and 50 µL of 0.1% N-(1-naphthyl) ethylenediamine in 2.5% H3PO4. After incubation at 23 °C for 10 min in an orbital shaker, the optical density was determined at a wavelength of 550 nm with a microplate reader Infinite M200 PRO (Tecan, Grödig, Austria).
# [3] = system: IL-6 release in LPS-stimulated primary murine peritoneal macrophages; experiment: Inhibition of IL-6 release in LPS-stimulated macrophages (ELISA); format: cell-based, C57bl/6j mice; conditions: Mus musculus, Peritoneal macrophage; LPS-stimulated (100 ng/mL E. coli LPS) peritoneal macrophages; n.a. = not active
# Description: as §1
# (§3) The cell supernatant was collected and centrifuged at 1000× g for 20 min in a 2–16 PK centrifuge (Sigma, Osterode am Harz, Germany). The concentrations of IL-6 and TNF-alpha were determined by ELISA using commercial kits (Cloud-clone, Houston, TX, USA) with a microplate reader Infinite M200 PRO (Tecan, Grödig, Austria).
# [4] = system: LPS-induced acute lung injury in C57BL/6J mice; experiment: LPS-induced acute lung injury: open field test; format: in vivo; conditions: 6e 30 mg/kg i.p., within 24 h after LPS; for motor activity in the open field test, in words: dexamethasone 5 mg/kg
# Description: (§4) The randomization of C57BL/6J mice was performed by body weight and motor activity in an open field test. […] The control animals received an equal volume of the vehicle. After 1 h, the mice were anesthetized with isoflurane inhalation until their breathing rate was decreased. The mice were suspended by the front incisors on an inclined surgical table, the tongue was pulled out with narrow curved tweezers, and 1 mg/mL of E. coli O127:B8 LPS (Sigma-Aldrich, St. Louis, MO, USA) in 1 mL/kg sterile saline was instilled into the back of the oropharynx. Intact control animals received an equal volume of sterile saline similarly.
# The animals were placed in the center of a round open field with an arena of 44 cm diameter and 32 cm wall height under 300 lux lighting. During 5 min of observation, horizontal motor activity, vertical motor activity, time spent in the central part, the number of exits to the central part, and exploratory activity parameters were recorded. Body temperature was determined rectally.
# [5] = system: LPS-induced acute lung injury in C57BL/6J mice; experiment: LPS-induced acute lung injury: leukocyte markers in blood, BAL and spleen; format: in vivo; conditions: dexamethasone 5 mg/kg, 6e 30 mg/kg i.p.; 24 h after LPS
# Description: as §4
# (§5) The mice were anesthetized with 500 mg/kg chloral hydrate (Sigma-Aldrich, St. Louis, MO, USA) intraperitoneally 24 h after LPS administration. Blood was taken by intracardiac puncture in test tubes with heparin. The blood samples were centrifuged at 1000× g and 4 °C for 15 min on a 2–16 PK centrifuge (Sigma, Germany), and plasma was separated and stored at −80 °C until the assay. Thoracotomy was performed, the ligature was applied to the left bronchus and the trachea was cannulated with a 20 G needle. The right lung was washed twice with 0.7 mL of warm sterile saline. After combining aliquots, the bronchoalveolar lavage (BAL) was centrifuged at 800× g and 4 °C for 10 min. The supernatant was separated and stored at −80 °C until the assay. The residual cell pellet was resuspended in 50 µL of PBS for further study. The left lung was washed in saline and placed in 10% buffered formalin for morphological evaluation.
# The total number of leukocytes in heparinized blood was determined after staining with methylene blue in Goryaev’s counting chamber at ×100 magnification. Smears of blood and BAL cell pellets were air-dried, fixed according to May–Grunwald for 3 min, and stained according to Romanowsky–Giemsa. After 30 min, the slides were washed, air-dried, and examined with an immersion objective (×1000 total magnification). On each slide, a total of at least 100 cells were calculated.
# [6] = system: LPS-induced acute lung injury in C57BL/6J mice; experiment: LPS-induced acute lung injury: histological study; format: in vivo; conditions: 24 h after LPS; for Mean Injury Score (semi-quantitative morphological score of lung tissue damage): score 0-3, dexamethasone 5 mg/kg, 6e 30 mg/kg i.p. 1 h before oropharyngeal LPS
# Description: as §4, §5
# The sections were examined under a light microscope (Zeiss, Germany) by a double-blind method.
# [7] = system: LPS-induced acute lung injury in C57BL/6J mice; experiment: LPS-induced acute lung injury: biochemical markers of inflammation (IL-6, lung permeability index); format: in vivo; conditions: 6e 30 mg/kg i.p., 24 h after LPS
# Description: as §3, §4, §5
# The concentration of total protein in BAL supernatants was determined spectrophotometrically with the pyrogallol red method, and the protein in the blood plasma was determined with the biuret method using commercial kits (Vital, Saint Petersburg, Russia) and bovine serum albumin as the standard. The lung permeability index was calculated as the protein concentration in the BAL to plasma ratio.
SMILES,IC50 [2] [µM],IC50 [3] [µM],CC50 at 24 h (MTT cytotoxicity study) [µM],other results
Cc1nc(-c2ccccc2)cc(-c2ccccc2N)n1 [Compound 6a],,,> 100,"macrophage phagocytic activity (number of phagocytes), in words [1]: preserve macrophage phagocytic activity; phagocytic capacity (number of yeast cells per macrophage), in words [1]: significantly suppressed macrophage phagocytic capacity; decrease of the mean number of phagocytosed particles ([1]; vs DMSO): 35%; cytotoxicity in the MTT test, in words (peritoneal macrophages): pronounced cytotoxicity"
Cc1nc(-c2ccccc2)cc(-c2ccc(N)cc2)n1 [Compound 6b],21.1,2.18,65.6,
Cc1nc(-c2ccc(N)cc2)cc(-c2ccc(F)cc2)n1 [Compound 6c],0.37,34.9,> 100,
Cc1nc(-c2ccc(N)cc2)cc(-c2cccc(N)c2)n1 [Compound 6d],,,> 100,
Cc1nc(-c2ccc(N)cc2)cc(-c2ccc(N)cc2)n1 [Compound 6e],16.2,18.4,> 100,"phagocytic capacity (number of yeast cells per macrophage), in words [1]: retains a nearly normal phagocytic capacity; decrease of the phagocytic index ([1]; vs DMSO): 32%; exploratory behavior in the open field test, in words [4]: improved; motor activity in the open field test, in words [4]: increased the motor activity of mice but was inferior to dexamethasone activity; BAL: ratio of segmented neutrophils to monocytes, in words [5]: amelioration of this ratio; spleen lymphocytes (systemic immunosuppression), in words [5]: preserved normal content of spleen lymphocytes; histological inflammatory lesions of the lung, in words ([6]; 6e 30 mg/kg i.p., H&E): limited inflammatory lesions; Mean Injury Score (semi-quantitative morphological score of lung tissue damage) [6]: 1.83; lung permeability index, in words ([7]; BAL to plasma protein ratio): preserving the vascular permeability at intact levels; markers of inflammation and lung damage (IL-6 in BAL and plasma, alveolar vessel permeability), in words ([7]; dexamethasone 5 mg/kg): normalized these markers of inflammation and lung damage; plasma IL-6 concentration, in words ([7]; dexamethasone 5 mg/kg): normalized it to intact levels"
Nc1ccc(-c2cc(-c3ccc(N)cc3)nc(N)n2)cc1 [Compound 6f],42.9,,96.1,
CSc1nc(-c2ccc(N)cc2)cc(-c2ccc(N)cc2)n1 [Compound 6g],0.12,> 100,> 100,
CCOC(=O)C1=C(C)Nc2ncnn2C1c1cccc(N)c1 (stereo not drawn) [Compound 11a],,,> 100,
CCOC(=O)C1=C(C)Nc2ncnn2C1c1ccc(N)cc1 (stereo not drawn) [Compound 11b],,,> 100,
"C[C@@H]1C[C@H]2[C@@H]3CCC4=CC(=O)C=C[C@]4(C)[C@@]3(F)[C@@H](O)C[C@]2(C)[C@@]1(O)C(=O)CO [Dexamethasone, reference compound]",23.4,2.5,97.4,"macrophage phagocytic activity (number of phagocytes), in words [1]: reducing both the number of phagocytes; phagocytic capacity (number of yeast cells per macrophage), in words [1]: reducing both the number of phagocytes and their phagocytic capacity; motor activity in the open field test, in words [4]: corrected by dexamethasone; blood: recruitment of segmented neutrophils at the expense of lymphocytes, in words [5]: corrected by dexamethasone; spleen lymphocytes (systemic immunosuppression), in words [5]: significantly decreased proliferation of spleen lymphocytes; Mean Injury Score (semi-quantitative morphological score of lung tissue damage) [6]: 1.33; plasma IL-6 concentration, in words ([7]; dexamethasone 5 mg/kg): normalized it to intact levels"

# Second part, led by results:
IC50 [2] [µM],IC50 [3] [µM],SMILES,CC50 at 24 h (MTT cytotoxicity study) [µM],other results
0.37,14.9,Nc1ccc(-c2cc(-c3ccc(F)cc3)n3ncnc3n2)cc1 [Compound 7a],> 100,
45.3,31.4,Nc1ccc(-c2cc(-c3cccc(N)c3)n3ncnc3n2)cc1 [Compound 7b],> 100,
15.2,2.2,Nc1ccc(-c2cc(-c3ccc(N)cc3)n3ncnc3n2)cc1 [Compound 7c],47.1,"macrophage phagocytic activity (number of phagocytes), in words [1]: preserve macrophage phagocytic activity; phagocytic capacity (number of yeast cells per macrophage), in words [1]: significantly suppressed macrophage phagocytic capacity; decrease of the mean number of phagocytosed particles ([1]; vs DMSO): 63%; cytotoxicity in the MTT test, in words (peritoneal macrophages): pronounced cytotoxicity"
323,,CCOC(=O)C1=C(C)NC(C)=NC1c1cccc(N)c1 (stereo not drawn) [Compound 10a],> 100,
71.8,,CCOC(=O)C1=C(C)NC(C)=NC1c1ccc(N)cc1 (stereo not drawn) [Compound 10b],178,
